Results from paper PMC6359284, “Identification, Characterization, and Optimization of Integrin αvβ6-Targeting Peptides from a One-Bead One-Compound (OBOC) Library: Towards the Development of Positron Emission Tomography (PET) Imaging Agents” (Molecules, 2019).
Where “and” joins values, the source holds several entries; their conditions need not be identical. Equal entries are not always repeated. Where two headings read alike, the source gives them in different places. Square brackets hold non-standard residues; d marks the D form. Primed or numbered codes have the meaning given here. Ends that are not written are not given here. Peptide text beside a SMILES is read from it. * marks the point of attachment. (18F)FB = 4-[18F]fluorobenzoyl, radiolabelled form of FB, O=C(c1ccc([18F])cc1)*; PEG12 = NCCOCCOCCOCCOCCOCCOCCOCCOCCOCCOCCOCCOCCC(=O)O; Benzoyl(4-F) = O=C(c1ccc(F)cc1)*; PEG28′ = not defined here

Tests used:
[1] = molecular target: T1, integrin αvβ6 (Homo sapiens, UniProt P06756+P18564); assay: Competitive binding ELISA, purified integrin αvβ6; details: for selectivity ratio for integrin αvβ6 compared to αvβ5: from ELISA IC50 values
T1 construct: purchased R&D Systems
Description: (§1) Competitive binding ELISAs were performed to evaluate the binding affinity of each peptide relative to each integrin’s biotinylated natural ligand (transforming growth factor beta 1 latency-associated peptide or TGFβ1-LAP (G&P Biosciences, Santa Clara, CA, USA) for integrins αvβ6 and αvβ8, fibronectin (Thermo Fisher, Waltham, MA, USA) for integrin αvβ1, and vitronectin (Thermo Fisher) for integrins αvβ3 and αvβ5), as previously described. In brief, anti-αv antibody (P2W7, 5 μg/mL, Abcam) was plated (50 μL/well) at 37 °C for 1 h, washed with PBS (3×), and blocked overnight with blocking buffer (300 μL/well, 5% bovine serum albumin (BSA), 1% Tween 20, in PBS), followed by washing with PBS (3×). […] The plate was incubated at 37 °C for 1 h, then washed with wash buffer (3×). A 1:1000 dilution of ExtrAvidin Horseradish Peroxidase (HRP) was added to each well (50 μL/well), incubated at 37 °C for 1 h, and then washed with wash buffer (3×). The ExtrAvidin HRP was detected with 3,3′,5,5′-tetramethylbenzidine (50 μL/well, Promega, Madison, WI, USA) for 10–15 min at room temperature. The reaction was stopped by adding 1N H2SO4 (50 μL/well) and the absorbance was measured in a Multiscan Ascent plate reader (Thermo Fisher) at 450 nm. Half-maximal inhibitory concentration (IC50) of peptides was determined fitting to sigmoidal dose-response model in GraphPad Prism 5.0 (San Diego, CA, USA).

[2] = tested on: DX3puroβ6 (αvβ6+) cells; assay: 18F-radiolabeled peptide cell binding assay, αvβ6+ cells; format: cell-based; details: 60 min incubation at 37 °C, n = 3
Description: (§2) Cell binding assay was performed as previously described. […] The ^18F-radiolabeled peptide was prepared in a stock solution of 148 kBq in 1 mL PBS (pH 7.2). Aliquots of each ^18F-radiolabeled peptide (50 μL, 7.4 kBq per sample) were added to each cell sample and incubated at 37 °C for 1 h with frequent suspension. After incubation, each sample was centrifuged and the supernatant was collected. The cell pellet was washed with 500 μL PBS, centrifuged, and the supernatant was combined with the previously collected supernatant samples. The cell pellet was resuspended in 600 μL PBS and transferred to gamma counter tubes. All pellet and supernatant samples were measured in a Wizard 1470 gamma counter (Perkin Elmer, Waltham, MA, USA). Cell binding percentage for each cell line was calculated as the radioactivity associated, with pellet divided by the total radioactivity associated with both the pellet and supernatant.

[3] = Serum stability assay in mouse serum; format: in vitro ADME; details: 37 °C, radio-RP-HPLC
Description: Peptide stability was evaluated in mouse serum as previously described. In brief, formulated ^18F-radiolabeled peptide (~3.7 MBq in PBS) was incubated with mouse serum (500 μL, Sigma Aldrich, St. Louis, MO) at 37 °C for 1 h.

[4] = molecular target: T2, integrin αvβ8 (Homo sapiens, UniProt P06756+P26012); assay: Competitive binding ELISA, purified integrin αvβ8; details: competitive ELISA vs biotinylated TGFβ1-LAP, n = 3
T2 construct: purchased R&D Systems
Description: as §1

[5] = molecular target: T3, integrin αvβ3 (Homo sapiens, UniProt P05106+P06756); assay: Competitive binding ELISA, purified integrin αvβ3; details: competitive ELISA vs biotinylated vitronectin, n = 3
T3 construct: purchased R&D Systems
Description: as §1

[6] = molecular target: T4, integrin αvβ1 (Homo sapiens, UniProt P05556+P06756); assay: Competitive binding ELISA, purified integrin αvβ1; details: competitive ELISA vs biotinylated fibronectin, n = 3
T4 construct: purchased R&D Systems
Description: as §1

[7] = tested on: DX3puro (αvβ6−) cells; assay: 18F-radiolabeled peptide cell binding assay, αvβ6− cells; format: cell-based; details: 60 min incubation at 37 °C, n = 3
Description: as §2

[8] = competitive ELISA vs biotinylated TGFβ1-LAP, n = 3, read-out: IC50 (μM) αvβ6

Molecule	IC50 [1, 8] [µM]	% binding to DX3puroβ6 (αvβ6+) cells [2]	% Intact (1 h) [3]	% binding to DX3puro (αvβ6−) cells [7]	further results
CC(C)C[C@H](NC(=O)[C@H](Cc1ccc(O)cc1)NC(=O)[C@@H](NC(=O)[C@H](CC(C)C)NC(=O)[C@H](CC(=O)O)NC(=O)CNC(=O)[C@@H](NC(=O)c1ccc(F)cc1)C(C)C)[C@@H](C)O)C(=O)N[C@@H](CCCCN)C(=O)N[C@@H](CCCCN)C(N)=O [1a] ({Benzoyl(4-F)}-VGDLTYLKK-NH2)	0.81 ± 0.09	–	–	–	–
CC(=O)N[C@H](C(=O)NCC(=O)N[C@@H](CC(=O)O)C(=O)N[C@@H](CC(C)C)C(=O)N[C@H](C(=O)N[C@@H](Cc1ccc(O)cc1)C(=O)N[C@@H](CC(C)C)C(=O)N[C@@H](CCCCN)C(=O)N[C@@H](CCCCNC(=O)c1ccc(F)cc1)C(N)=O)[C@@H](C)O)C(C)C [1b]	> 100	–	–	–	–
CN[C@H](C(=O)NCC(=O)N[C@@H](CC(=O)O)C(=O)N[C@@H](CC(C)C)C(=O)N[C@H](C(=O)N[C@@H](Cc1ccc(O)cc1)C(=O)N[C@@H](CC(C)C)C(=O)N[C@@H](CCCCN)C(=O)N[C@@H](CCCCNC(=O)c1ccc(F)cc1)C(N)=O)[C@@H](C)O)C(C)C [1c]	> 5	–	–	–	–
CC(C)C[C@H](NC(=O)[C@H](Cc1ccc(O)cc1)NC(=O)[C@@H](NC(=O)[C@H](CC(C)C)NC(=O)[C@H](CC(=O)O)NC(=O)CNC(=O)[C@@H](NC(=O)CCOCCOCCOCCOCCOCCOCCOCCOCCOCCOCCOCCOCCN)C(C)C)[C@@H](C)O)C(=O)N[C@@H](CCCCN)C(=O)N[C@@H](CCCCNC(=O)c1ccc(F)cc1)C(N)=O [1d] (H-[PEG12]VGDLTYLKK(Benzoyl(4-F))-NH2; N-terminus assumed)	> 100	–	–	–	–
CC(C)C[C@H](NC(=O)[C@H](Cc1ccc(O)cc1)NC(=O)[C@@H](NC(=O)[C@H](CC(C)C)NC(=O)[C@H](CC(=O)O)NC(=O)CNC(=O)[C@@H](NC(=O)c1ccc(F)cc1)C(C)C)[C@@H](C)O)C(=O)N[C@@H](CCCCN)C(=O)N[C@@H](CCCCNC(=O)c1ccc(F)cc1)C(N)=O [1e]	0.84 ± 0.36	–	–	–	–
CC(C)C[C@H](NC(=O)[C@H](Cc1ccc(O)cc1)NC(=O)[C@@H](NC(=O)[C@H](CC(C)C)NC(=O)[C@H](CC(=O)O)NC(=O)CNC(=O)[C@@H](N)C(C)C)[C@@H](C)O)C(=O)N[C@@H](CCCCN)C(=O)N[C@@H](CCCCNC(=O)c1ccc(F)cc1)C(=O)NCCOCCOCCOCCOCCOCCOCCOCCOCCOCCOCCOCCOCCOCCOCCOCCOCCOCCOCCOCCOCCOCCOCCOCCOCCOCCOCCOCCOCCC(N)=O [1f]	3.7 ± 1	< 2%	> 95%	–	–
CC(=O)N[C@H](C(=O)NCC(=O)N[C@@H](CC(=O)O)C(=O)N[C@@H](CC(C)C)C(=O)N[C@H](C(=O)N[C@@H](Cc1ccc(O)cc1)C(=O)N[C@@H](CC(C)C)C(=O)N[C@@H](CCCCN)C(=O)N[C@@H](CCCCNC(=O)c1ccc(F)cc1)C(=O)NCCOCCOCCOCCOCCOCCOCCOCCOCCOCCOCCOCCOCCOCCOCCOCCOCCOCCOCCOCCOCCOCCOCCOCCOCCOCCOCCOCCOCCC(N)=O)[C@@H](C)O)C(C)C [1g]	> 100	–	–	–	–
CC(C)C[C@H](NC(=O)[C@H](Cc1ccc(O)cc1)NC(=O)[C@@H](NC(=O)[C@H](CC(C)C)NC(=O)[C@H](CC(=O)O)NC(=O)CNC(=O)[C@@H](NC(=O)c1ccc(F)cc1)C(C)C)[C@@H](C)O)C(=O)N[C@@H](CCCCN)C(=O)N[C@@H](CCCCNC(=O)c1ccc(F)cc1)C(=O)NCCOCCOCCOCCOCCOCCOCCOCCOCCOCCOCCOCCOCCOCCOCCOCCOCCOCCOCCOCCOCCOCCOCCOCCOCCOCCOCCOCCOCCC(N)=O [1h]	1.47 ± 0.23	< 2%	> 95%	–	–
CC(C)C[C@H](NC(=O)[C@H](Cc1ccc(O)cc1)NC(=O)[C@@H](NC(=O)[C@H](CC(C)C)NC(=O)[C@H](CC(=O)O)NC(=O)CNC(=O)[C@@H](N)C(C)C)[C@@H](C)O)C(=O)N[C@@H](CCCCN)C(=O)N[C@@H](CCCCNC(=O)c1ccc(F)cc1)C(N)=O [compound 1] (H-VGDLTYLKK(Benzoyl(4-F))-NH2; N-terminus assumed)	–	–	–	–	IC50 [4]: 5.3 ± 0.14 µM; selectivity ratio for integrin αvβ6 compared to the other integrins (αvβ1, αvβ3, and αvβ5) [1]: > 200 :1; IC50 ([1]; read-out: IC50 (μM) αvβ6): 0.45 ± 0.06 µM
CSCC[C@H](NC(=O)[C@H](CC(C)C)NC(=O)[C@H](CC(=O)O)NC(=O)CNC(=O)[C@@H](N)CCCNC(=N)N)C(=O)N[C@@H](CCCCN)C(=O)N[C@@H](CC(C)C)C(=O)N[C@@H](C)C(=O)N[C@@H](CCCCNC(=O)c1ccc(F)cc1)C(N)=O [compound 2] (H-RGDLMKLAK(Benzoyl(4-F))-NH2; N-terminus assumed)	–	–	–	–	IC50 [4]: 2.6 ± 0.35 µM; IC50 [1]: 0.95 ± 0.17 µM; selectivity ratio for integrin αvβ6 compared to αvβ5 [1]: > 100 :1
CC(C)C[C@H](NC(=O)[C@H](CC(=O)O)NC(=O)CNC(=O)[C@@H](N)CCCNC(=N)N)C(=O)N[C@@H](C)C(=O)N[C@@H](CC(=O)O)C(=O)N[C@@H](CC(C)C)C(=O)N[C@@H](CCCNC(=N)N)C(=O)N[C@@H](CCCCNC(=O)c1ccc(F)cc1)C(N)=O [compound 3] (H-RGDLADLRK(Benzoyl(4-F))-NH2; N-terminus assumed)	–	–	–	–	selectivity ratio for integrin αvβ6 compared to αvβ5 [1]: > 100 :1
CC[C@H](C)[C@H](NC(=O)CN)C(=O)N[C@@H](CC(=O)O)C(=O)N[C@@H](CC(C)C)C(=O)N[C@H](C(=O)N[C@@H](CO)C(=O)N[C@@H](CC(C)C)C(=O)N[C@H](C(=O)N[C@@H](CCCCNC(=O)c1ccc(F)cc1)C(N)=O)[C@@H](C)O)[C@@H](C)O [compound 4] (H-GIDLTSLTK(Benzoyl(4-F))-NH2; N-terminus assumed)	> 100	–	–	–	IC50 [5]: > 100 µM
CC(C)C[C@H](NC(=O)[C@H](CCC(=O)O)NC(=O)[C@H](CCCNC(=N)N)NC(=O)[C@H](CC(C)C)NC(=O)[C@H](CC(=O)O)NC(=O)CNC(=O)[C@@H](N)CCCNC(=N)N)C(=O)N[C@@H](C)C(=O)N[C@@H](CCCCNC(=O)c1ccc(F)cc1)C(N)=O [compound 5] (H-RGDLRELAK(Benzoyl(4-F))-NH2; N-terminus assumed)	–	–	–	–	selectivity ratio for integrin αvβ6 compared to αvβ5 [1]: > 100 :1; IC50 ([1]; read-out: IC50 (μM) αvβ6, competitive ELISA vs biotinylated TGFβ1-LAP, n = 3): 0.89 ± 0.14 µM; IC50 [6]: 1.9 ± 0.3 µM
FB-VGDLTYLKK([^18F]FB)-PEG28 ({Benzoyl(4-F)}-VGDLTYLKK((18F)FB)[PEG28′]) [[^18F]1h]	–	less than 2%	> 95% and 95%	less than 2%	–
RGDLADLRK([^18F]FB) (RGDLADLRK((18F)FB)) [[^18F]3]	–	7.7 ± 3.8%	0%	5.3 ± 2.8%	–
RGDLRELAK([^18F]FB) (RGDLRELAK((18F)FB)) [[^18F]5]	–	6.4 ± 0.1%	0%	5.9 ± 0.8%	–
VGDLTYLKK([^18F]FB) (VGDLTYLKK((18F)FB)-NH2) [[^18F]1]	–	12.8 ± 1.9%	25%	11.7 ± 2.2%	–
VGDLTYLKK([^18F]FB)-PEG28 (VGDLTYLKK((18F)FB)[PEG28′]) [[^18F]1f]	–	less than 2%	> 95% and 95%	less than 2%	–
VGDLTYLKK([^18F]FB)KVART [[^18F]1i]	–	5.0 ± 0.5%	> 99% and 99%	–	–
[^18F]FB-PEG28-A20FMDV2-K16R-PEG28 [reference compound]	–	77.1 ± 0.1%	–	1.5 ± 0.1%	–
[^18F]FB-VGDLTYLKK ({(18F)FB}-VGDLTYLKK-NH2) [[^18F]1a]	–	less than 2%	–	less than 2%	–
